In US20210261621A1, “Preparation of Dilipid Polymixins and Use Thereof as Antimicrobial Adjuvants” (priority 2018, published 2021):
Several values for one entry are separate records, joined by “and”; a condition that tells them apart may be missing. Equal entries are not always repeated. Where two headings read alike, the source gives them in different places. Positions of bridges follow the written chain, without caps; N, C: chain ends. Non-standard residues stand in square brackets, D forms with d. Residues, ends and D or L forms follow the SMILES beside them. *: point of attachment. Octanoyl = CCCCCCCC(=O)*; Dab = NCC[C@H](N)C(=O)O

Columns and labels:
P. aeruginosa = assay: MIC comparison over the P. aeruginosa strains tested; format: cell-based, Pseudomonas aeruginosa; details: all eleven P. aeruginosa strains tested (Table 2)
Source text: Specifically, addition of another lipid component to the amine side-chain of Dab1 reduced polymyxin's activity against Escherichia coli, P. aeruginosa, Stenotrophomonas maltophilia, A. baumannii, Klebsiella pneumoniae and Enterobacter cloacae. However, the reduction of activity against P. aeruginosa was not as drastic relative to other Gram-negative pathogens. […] We believe that this selectivity for P. aeruginosa is due to differences in exopolysaccharides and lipopolysaccharides between Gram-negative bacteria. This finding may imply the possibility of developing antipseudomonal polymyxins for pathogen-specific therapy.
The in vitro antibacterial activity of the compounds studied were assessed by broth microdilution susceptibility testing following CLSI guidelines. Bacterial cultures were grown overnight prior to the assay. The overnight grown cultures were diluted in saline to 0.5 McFarland turbidity, followed by 1:50 dilution in Mueller-Hinton broth (MHB) for inoculation to a final concentration of approximately 5×10^5 colony forming units/mL. Testing was performed on 96-well plates where the tested compounds were 2-fold serially diluted in MHB and incubated with equal volumes of bacterial inoculum at 37° C. for 18 h. […] Wells containing MHB with or without bacterial cells were used as positive or negative control, respectively.

P. aeruginosa PAO1 = test system: P. aeruginosa PAO1; set-up: MICDrug / MICDrug in combo / MIC of adjuvant in combo: unit not given beside the values

In the case of `CCCCCCCC(=O)NCC[C@H](NC(=O)CCCCCCC)C(=O)N[C@H](C(=O)N[C@@H](CCN)C(=O)N[C@H]1CCNC(=O)[C@H]([C@@H](C)O)NC(=O)[C@H](CCN)NC(=O)[C@H](CCN)NC(=O)[C@H](CC(C)C)NC(=O)[C@@H](Cc2ccccc2)NC(=O)[C@H](CCN)NC1=O)[C@@H](C)O` [Compound 2, Dioctanoic Acid (Di-C8) Polymyxin] (Octanoyl-[Dab](Octanoyl)T[Dab][Dab][Dab][dF]L[Dab][Dab]T; lactam 4-C), the “fold lower MIC than colistin” value (P. aeruginosa) is reported as 4-8 fold, the “MIC of adjuvant alone (MIC1, MIC2, MIC3, MIC4, MIC5, MICPMBN)” value (P. aeruginosa PAO1; adjuvant alone, one value per checkerboard, in µg/mL) is reported as 8 and 4 and the Interpretation (P. aeruginosa PAO1; combination with Aztreonam) is reported as “Additive (An FIC index of ≤0.5, 0.5<x≤4, or >4 denotes for synergistic, additive or antagonistic interaction, respectively)”. For the same molecule, the Interpretation (P. aeruginosa PAO1; combination with Ceftazidime) was “Additive (An FIC index of ≤0.5, 0.5<x≤4, or >4 denotes for synergistic, additive or antagonistic interaction, respectively)”, the Interpretation (P. aeruginosa PAO1; combination with Chloramphenicol) was “Synergy (An FIC index of ≤0.5, 0.5<x≤4, or >4 denotes for synergistic, additive or antagonistic interaction, respectively)” and the Interpretation (P. aeruginosa PAO1; combination with Ciprofloxacin) was “Additive (An FIC index of ≤0.5, 0.5<x≤4, or >4 denotes for synergistic, additive or antagonistic interaction, respectively)”. For the same molecule, the Interpretation (P. aeruginosa PAO1; combination with Clindamycin) was “Synergy (An FIC index of ≤0.5, 0.5<x≤4, or >4 denotes for synergistic, additive or antagonistic interaction, respectively)”, the Interpretation (P. aeruginosa PAO1; combination with Doripenem) was “Additive (An FIC index of ≤0.5, 0.5<x≤4, or >4 denotes for synergistic, additive or antagonistic interaction, respectively)” and the Interpretation (P. aeruginosa PAO1; combination with Doxycycline) was “Additive (An FIC index of ≤0.5, 0.5<x≤4, or >4 denotes for synergistic, additive or antagonistic interaction, respectively)”. For the same molecule, the Interpretation (P. aeruginosa PAO1; combination with Fosfomycin) was “Additive (An FIC index of ≤0.5, 0.5<x≤4, or >4 denotes for synergistic, additive or antagonistic interaction, respectively)”, the Interpretation (P. aeruginosa PAO1; combination with Gentamicin) was “Additive (An FIC index of ≤0.5, 0.5<x≤4, or >4 denotes for synergistic, additive or antagonistic interaction, respectively)” and the Interpretation (P. aeruginosa PAO1; combination with Linezolid) was “Additive (An FIC index of ≤0.5, 0.5<x≤4, or >4 denotes for synergistic, additive or antagonistic interaction, respectively)”. For the same molecule, the Interpretation (P. aeruginosa PAO1; combination with Meropenem) was “Additive (An FIC index of ≤0.5, 0.5<x≤4, or >4 denotes for synergistic, additive or antagonistic interaction, respectively)”, the Interpretation (P. aeruginosa PAO1; combination with Minocycline) was “Synergy (An FIC index of ≤0.5, 0.5<x≤4, or >4 denotes for synergistic, additive or antagonistic interaction, respectively)” and the Interpretation (P. aeruginosa PAO1; combination with Moxifloxacin) was “Additive (An FIC index of ≤0.5, 0.5<x≤4, or >4 denotes for synergistic, additive or antagonistic interaction, respectively)”. For the same molecule, the Interpretation (P. aeruginosa PAO1; combination with Novobiocin) was “Synergy (An FIC index of ≤0.5, 0.5<x≤4, or >4 denotes for synergistic, additive or antagonistic interaction, respectively)”, the Interpretation (P. aeruginosa PAO1; combination with Piperacillin) was “Additive (An FIC index of ≤0.5, 0.5<x≤4, or >4 denotes for synergistic, additive or antagonistic interaction, respectively)” and the Interpretation (P. aeruginosa PAO1; combination with Pleuromutilin) was “Additive (An FIC index of ≤0.5, 0.5<x≤4, or >4 denotes for synergistic, additive or antagonistic interaction, respectively)”. For the same molecule, the Interpretation (P. aeruginosa PAO1; combination with Rifampicin) was “Additive (An FIC index of ≤0.5, 0.5<x≤4, or >4 denotes for synergistic, additive or antagonistic interaction, respectively)”, the Interpretation (P. aeruginosa PAO1; combination with Streptomycin) was “Additive (An FIC index of ≤0.5, 0.5<x≤4, or >4 denotes for synergistic, additive or antagonistic interaction, respectively)” and the Interpretation (P. aeruginosa PAO1; combination with Tobramycin) was “Additive (An FIC index of ≤0.5, 0.5<x≤4, or >4 denotes for synergistic, additive or antagonistic interaction, respectively)”. For the same molecule, the Interpretation (P. aeruginosa PAO1; combination with Trimethoprim) was “Additive (An FIC index of ≤0.5, 0.5<x≤4, or >4 denotes for synergistic, additive or antagonistic interaction, respectively)”, the Interpretation (P. aeruginosa PAO1; combination with Vancomycin) was “Additive (An FIC index of ≤0.5, 0.5<x≤4, or >4 denotes for synergistic, additive or antagonistic interaction, respectively)” and the “MIC of adjuvant in combo” value (P. aeruginosa PAO1; in combination with Aztreonam) was “(4)”. For the same molecule, the “MIC of adjuvant in combo” value (P. aeruginosa PAO1; in combination with Ceftazidime) was “(2)”, the “MIC of adjuvant in combo” value (P. aeruginosa PAO1; in combination with Chloramphenicol) was “(2)” and the “MIC of adjuvant in combo” value (P. aeruginosa PAO1; in combination with Ciprofloxacin) was “(4)”. For the same molecule, the “MIC of adjuvant in combo” value (P. aeruginosa PAO1; in combination with Clindamycin) was “(2)”, the “MIC of adjuvant in combo” value (P. aeruginosa PAO1; in combination with Doripenem) was “(4)” and the “MIC of adjuvant in combo” value (P. aeruginosa PAO1; in combination with Doxycycline) was “(4)”. The “MIC of adjuvant in combo” value (P. aeruginosa PAO1; in combination with Fosfomycin) was “(4)”, the “MIC of adjuvant in combo” value (P. aeruginosa PAO1; in combination with Gentamicin) was “(0.125)” and the “MIC of adjuvant in combo” value (P. aeruginosa PAO1; in combination with Linezolid) was “(4)”. The “MIC of adjuvant in combo” value (P. aeruginosa PAO1; in combination with Meropenem) was “(4)”, the “MIC of adjuvant in combo” value (P. aeruginosa PAO1; in combination with Minocycline) was “(2)” and the “MIC of adjuvant in combo” value (P. aeruginosa PAO1; in combination with Moxifloxacin) was “(2)”. For the same molecule, the “MIC of adjuvant in combo” value (P. aeruginosa PAO1; in combination with Novobiocin) was “(2)”, the “MIC of adjuvant in combo” value (P. aeruginosa PAO1; in combination with Piperacillin) was “(4)” and the “MIC of adjuvant in combo” value (P. aeruginosa PAO1; in combination with Pleuromutilin) was “(2)”. For the same molecule, the “MIC of adjuvant in combo” value (P. aeruginosa PAO1; in combination with Rifampicin) was “(1)”, the “MIC of adjuvant in combo” value (P. aeruginosa PAO1; in combination with Streptomycin) was “(4)” and the “MIC of adjuvant in combo” value (P. aeruginosa PAO1; in combination with Tobramycin) was “(0.125)”. The “MIC of adjuvant in combo” value (P. aeruginosa PAO1; in combination with Trimethoprim) was “(4)” and the “MIC of adjuvant in combo” value (P. aeruginosa PAO1; in combination with Vancomycin) was “(4)”.
